Results: PubChem BioAssay (NCI)
Values joined by “and” are separate entries in the source; they are usually repeats but may differ in a detail not shown here. Identical values can stand only once.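 Growth conditions: 96-well plates. Treatment: test compound, 48 hours, 5 concentrations. Analysis: linear interpolation between bracketing concentrations; unreached endpoints set to highest concentration. GI50: concentration for 50% inhibition of growth. TGI is the concentration that stops growth completely.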

What was measured:
Assay in all cases: DTP human tumour cell line panel, 48 h
K-562 leukemia = tested on: K-562 leukemia
NCI-H226 lung = tested on: NCI-H226 lung
MOLT-4 leukemia = tested on: MOLT-4 leukemia
LOX IMVI melanoma = tested on: LOX IMVI melanoma
KM12 colon = tested on: KM12 colon
SNB-75 CNS = tested on: SNB-75 CNS
OVCAR-8 ovarian = tested on: OVCAR-8 ovarian
HCT-15 colon = tested on: HCT-15 colon
HL-60(TB) leukemia = tested on: HL-60(TB) leukemia
HT29 colon = tested on: HT29 colon

SMILES | GI50 (K-562 leukemia) | TGI (K-562 leukemia) | GI50 (NCI-H226 lung) | TGI (NCI-H226 lung) | GI50 (MOLT-4 leukemia) | TGI (MOLT-4 leukemia) | GI50 (LOX IMVI melanoma) | TGI (LOX IMVI melanoma) | GI50 (KM12 colon) | TGI (KM12 colon) | GI50 (SNB-75 CNS) | TGI (SNB-75 CNS) | GI50 (OVCAR-8 ovarian) | TGI (OVCAR-8 ovarian) | GI50 (HCT-15 colon) | TGI (HCT-15 colon) | GI50 (HL-60(TB) leukemia) | TGI (HL-60(TB) leukemia) | GI50 (HT29 colon) | TGI (HT29 colon)
COc1cc2c(cc1C)NC(=O)/C2=C\c1cccc(Oc2ccccc2)c1 | 9.83 µM | 39.1 µM | 21 µM | 38.1 µM | 6.23 µM | 21.8 µM | 12.9 µM | 26.4 µM | 14.3 µM | 34.6 µM | 25 µM | 49.6 µM | 25.1 µM | > 100 µM | 13.3 µM | 26.2 µM | 11.9 µM | 26.8 µM | 12.1 µM | 26.1 µM
CN(CC(=O)N(Cc1ccc(C2CCCCC2)cc1)c1ccc(C(=O)O)c(O)c1)S(=O)(=O)c1c(F)c(F)c(F)c(F)c1F | 2.05 µM | 4.57 µM | 18.6 µM | 41.5 µM | 3.12 µM | 12 µM | 1.6 µM | 3.01 µM | 19 µM | 33.7 µM | 6.07 µM | 16.7 µM | 7.11 µM | 20.5 µM | 2.08 µM | 4.43 µM | 2.18 µM | 5.82 µM | 2.05 µM | 4.2 µM
CN(C)CCNC(=O)c1cccc2c1nc(-c1ccccc1)c1ccccc12 | – | 6.32 µM | – | 12.5 µM | – | 2.16 µM | – | 4.03 µM | – | 20.1 µM | – | 19.9 µM | – | 19.6 µM | – | 13.1 µM | – | 8 µM | – | 13.1 µM
C[C@]1(CO)CCC[C@@]2(C)C1CC[C@H]1CC3C[C@]12CC[C@]3(C)O (stereo partly specified) | – | > 100 µM | – | > 100 µM | – | > 100 µM | – | > 100 µM | – | > 100 µM | – | > 100 µM | – | > 100 µM | – | > 100 µM | – | 41.1 µM | – | > 100 µM
O=CC[C@H]1CCc2ccccc2C12CCC(=O)CC2 | – | > 100 µM | – | > 100 µM | – | > 100 µM | – | > 100 µM | – | > 100 µM | – | > 100 µM | – | > 100 µM | – | > 100 µM | – | 65.8 µM | – | > 100 µM
COc1cc2c(cc1Nc1nc(Nc3ccsc3C(N)=O)c3cc[nH]c3n1)N(C(=O)CN(C)C)CCC2(C)C | 1.75 µM | 6.47 µM | 0.763 µM | 4.92 µM | 1.9 µM | 8.91 µM | 1.99 µM | 6.08 µM | 0.647 µM | 2.61 µM | 2.7 µM | 5.9 µM | 1.64 µM | 5.69 µM | 1.84 µM | 5.62 µM | < 0.0025 µM | 2.04 µM | < 0.0025 µM | 2.53 µM
CN1c2ccccc2C(C)(C)C12C=Cc1cc(O)ccc1O2 (stereo unspecified) | 3.09 µM | > 100 µM | 13.3 µM | 28.8 µM | 4.5 µM | > 100 µM | 3.41 µM | 12.6 µM | 2.31 µM | 6.2 µM | 2.47 µM | 8.4 µM | 3.16 µM | 12.9 µM | 3.41 µM | 14 µM | 1.89 µM | 11.8 µM | 3.33 µM | 11.6 µM
COc1ccc(Cn2cc3c(c2-c2ccc(OC)cc2)CCc2cnoc2-3)cc1 | 0.349 µM | > 100 µM | 1.36 µM | > 100 µM | 0.504 µM | > 35 µM | 0.706 µM | > 100 µM | 0.376 µM | 2.35 µM | 0.216 µM | 0.804 µM | 0.621 µM | > 100 µM | 0.506 µM | > 100 µM | 0.282 µM | 1.17 µM | 0.309 µM | 1.24 µM
CC(=O)c1ccc(NC(=O)C(=O)Nn2c(=S)[nH]c3ccccc3c2=O)cc1 | – | > 100 µM | – | > 100 µM | – | > 100 µM | – | > 100 µM | – | > 100 µM | – | > 100 µM | – | > 100 µM | – | > 100 µM | – | > 100 µM | – | > 100 µM
CCCCCCCCCCCC1CCCC(C)N1 (stereo unspecified) | 1.96 µM | – | 16.7 µM | 36.9 µM and 166 µM | 1.79 µM | – | 3.62 µM | 16.1 µM and > 70.7 µM | 2.95 µM | – | 9.82 µM | 24 µM and 151 µM | 13.8 µM | 40.1 µM and 167 µM | 2.85 µM | 13.3 µM and 104 µM | 1.15 µM | – | 2.59 µM | 8.78 µM and 65.7 µM
N#Cc1c(N)nc(N2CCOCC2)c(C#N)c1-c1cccnc1 | 71.7 µM | > 100 µM | 81.8 µM | > 100 µM | > 100 µM | > 100 µM | 63.1 µM | > 100 µM | > 100 µM | > 100 µM | 11.1 µM | 43.6 µM | > 100 µM | > 100 µM | > 100 µM | > 100 µM | 95.6 µM | > 100 µM | > 100 µM | > 100 µM
CCNC(=O)c1cc2c(-c3cc(C(C)(C)O)ccc3Oc3c(C)cc(F)cc3C)cn(C)c(=O)c2[nH]1 | 1.86 µM | > 100 µM | 2.64 µM | 14.9 µM | 2.36 µM | 10.2 µM | 0.922 µM | 2.74 µM | 1.87 µM | 15.8 µM | 0.108 µM | 12.8 µM | 2.54 µM | 20.4 µM | 1.84 µM | 14.2 µM | 0.393 µM | 4.88 µM | 1.12 µM | 15 µM
C1CCN(c2nc(=[N+]3CCCCC3)ss2)CC1 | – | > 100 µM | – | > 100 µM | – | > 100 µM | – | > 100 µM | – | > 100 µM | – | > 100 µM | – | > 100 µM | – | > 100 µM | – | > 100 µM | – | > 100 µM
COc1ccc2c(c1)C(=O)c1c-2c(Nc2ccc(Cl)cc2)nc2ccccc12 | 71.6 µM | > 100 µM | 10.3 µM | 50 µM | 27.5 µM | > 100 µM | 14.2 µM | 54.9 µM | 50 µM | > 100 µM | 4.27 µM | 22.8 µM | 11.4 µM | 29.6 µM | 42.3 µM | > 100 µM | > 100 µM | > 100 µM | 27.5 µM | > 100 µM
